This is an account of results in patent US20080021045A1, “7-Amino-5-Halopyrazolopyrimidines with a Fungicidal Action” (BAYER CROPSCIENCE AKTIENGESELLSCHSFT, priority 2003, published 2008).

The structures appear in SMILES notation.

A short description of this data set: logP determination by HPLC (EEC Directive 79/831 Annex V. A8). The class given is physicochemical. The note with it: gradient method, acetonitrile/0.1% aqueous phosphoric acid.
For `CCC(C)c1c(Cl)nc2c(C=O)cnn2c1NC(C)C(C)C` (stereo not drawn) [Example 2, 3-formyl-5-chloro-6-(sec-butyl)-7-(3-methyl-2-butylamino)pyrazolo[1,5-a]pyrimidine], the chromatographic logP is 4.17.

Consider `CCC(C)c1c(Cl)nc2c(C#N)cnn2c1Cl` (stereo not drawn) [Example 30, 3-cyano-5,7-dichloro-6-(sec-butyl)pyrazolo[1,5-a]pyrimidine], for which the chromatographic logP is 3.27.

Compound `CCC(C)c1c(Cl)nc2c(C#N)cnn2c1NC(C)C(C)C` (stereo not drawn) [Example 1, 3-cyano-5-chloro-6-(sec-butyl)-7-[(S+)-3-methyl-2-butylamino]pyrazolo[1,5-a]pyrimidine] had a chromatographic logP of 4.59.
